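Protocol summary: plate cells (96-well), add compound at 5 concentrations, incubate 48 h, interpolate endpoints linearly. TGI marks complete inhibition of growth.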
How the values were obtained:
Assay in all cases: NCI tumour cell line growth inhibition, 48 h
UACC-257 melanoma = system: UACC-257 melanoma
MDA-N = system: MDA-N
SN12C renal = system: SN12C renal
RPMI-8226 leukemia = system: RPMI-8226 leukemia
SW-620 colon = system: SW-620 colon
LOX IMVI melanoma = system: LOX IMVI melanoma
786-0 renal = system: 786-0 renal
SF-539 CNS = system: SF-539 CNS
MALME-3M melanoma = system: MALME-3M melanoma
UACC-62 melanoma = system: UACC-62 melanoma
HOP-62 NSCLC = system: HOP-62 NSCLC
SK-OV-3 ovarian = system: SK-OV-3 ovarian
OVCAR-3 ovarian = system: OVCAR-3 ovarian

SMILES | TGI (UACC-257 melanoma) [µM] | TGI (MDA-N) [µM] | TGI (SN12C renal) [µM] | TGI (RPMI-8226 leukemia) [µM] | TGI (SW-620 colon) [µM] | TGI (LOX IMVI melanoma) [µM] | TGI (786-0 renal) [µM] | TGI (SF-539 CNS) [µM] | TGI (MALME-3M melanoma) [µM] | TGI (UACC-62 melanoma) [µM] | TGI (HOP-62 NSCLC) [µM] | TGI (SK-OV-3 ovarian) [µM] | TGI (OVCAR-3 ovarian) [µM]
Cn1c2ccc([N+](=O)[O-])cc2c(=O)n1Cc1ccccc1F | > 100 | > 100 | > 100 | > 100 | > 100 | > 100 | > 100 | 79.6 | > 100 | > 100 | > 100 | > 100 | > 100
Cn1c(=O)c2c3ccccc3n(C)c2n(C)c1=O | > 100 | > 100 | > 100 | > 100 | > 100 | > 100 | > 100 | > 100 | > 100 | > 100 | > 100 | 83.9 | > 100
COc1ccc(NC(=S)Nc2cc(C)cc(C)n2)cc1 | > 100 | > 100 | > 100 | > 100 | > 100 | > 100 | > 100 | > 100 | > 100 | > 100 | > 100 | > 100 | > 100
O=C1C=Cc2c(Br)sc(Br)c21 | > 100 | > 100 | > 100 | 46.3 | 43.7 | 48.4 | > 100 | > 100 | 64.6 | 76.4 | 84.8 | > 100 | 32.3
C1=CC2(C=CC13O[C@H](C1CCCCC1)[C@@H](C1CCCCC1)O3)O[C@H](C1CCCCC1)[C@@H](C1CCCCC1)O2 | > 50 | > 50 | > 50 | > 50 | > 50 | > 50 | > 50 | > 50 | > 50 | > 50 | > 50 | > 50 | > 50
CC1=C(C(=O)OCCO[N+](=O)[O-])C(c2cccc([N+](=O)[O-])c2)C(C(=O)OC(C)C)=C(C)N1 (configuration not stated) | 25.2 | 28.1 | 36.4 | > 100 | 51.1 | 31.6 | 35.7 | 30.5 | 51.9 | 30.2 | 30.9 | 36.9 | 23.6
O=C1N(C2CCCCC2)C(=O)N1C1CCCCC1 | 19.4 | 17 | 16.1 | 0.935 | 26.4 | 11.1 | > 67.6 | 45.1 | 11.7 | 1.9 | 31.5 | 59.9 | > 100
CCCN(CCC)CCc1ccc(OC2=CCN(C)CC2)cc1 | 43.9 | > 100 | > 100 | > 100 | > 100 | 89.8 | > 100 |  | 32.4 | > 100 | > 100 | > 100 | > 100
COc1cccc2c1C(=O)C1=C(C2=O)C(O)CC(C)(C)O1 (configuration not stated) | 50 | 36 | > 100 | 60.4 | > 100 | 57.3 | > 100 | > 100 | 33.7 | 60.9 | > 100 | > 100 | 40.5
NC(CCCCCCCCCCP(=O)(O)O)C(=O)O (configuration not stated) | > 100 | > 100 | > 100 | > 100 | > 100 | > 100 |  | > 100 |  | > 100 |  | > 100 | > 100
COc1ccc(N2CN3OC(=O)N(c4ccc(OC)cc4)[C@@]3(c3ccccc3)C2)cc1 | > 100 | 22.6 | > 100 | > 100 | > 100 | > 100 | > 100 | > 100 | > 100 | > 100 | > 100 | > 100 | 48.9
COc1ccccc1CCN1CCN(CCCc2ccccc2)CC1 | > 100 | > 100 | > 100 | > 100 | > 100 | > 100 | > 100 | > 100 | > 100 | > 100 | > 100 | > 100 | > 100
C=C1C[C@@H]2CC[C@@]34CC5O[C@H]6C(O[C@H]7CC[C@H](CC(=O)O[C@@H]8[C@@H](C)[C@@H]9O[C@@H]%10C[C@]%11(C[C@@H]%12O[C@]%13(C[C@H](C)[C@@H]%14O[C@@H]%15CC(C(O)CO)O[C@@H]%15C[C@@H]%14O%13)C[C@H](C)[C@@H]%12O%11)O[C@@H]%10C[C@@H]9O[C@H]8CC8O[C@@H](CC[C@@H]1O2)C[C@@H](C)C8(O)CO)O[C@@H]7[C@@H]6O3)[C@H]5O4 (some centres not stated) | > 1 | > 1 | > 1 | > 1 | > 1 | > 1 | > 1 |  | > 1 | > 1 | > 1 | > 1 | > 1
CCN(CC)c1ccc2cc(C(N)=O)c(=N)oc2c1 | > 100 | > 100 | > 100 | > 100 | > 100 | > 100 | > 100 | > 100 |  | > 100 | > 100 | > 100 | > 100
N#CC(C#N)=C1C(=Cc2ccc(OCCCCCCCCCCSSCCCCCCCCCCOc3ccc(C=C4C(=C(C#N)C#N)c5ccccc5C4=C(C#N)C#N)cc3)cc2)C(=C(C#N)C#N)c2ccccc21 | > 100 | 88.3 |  | > 100 | 52.1 | 35.6 | 41.7 | 47 |  |  | 47.6 |  | 89
S=c1nc2sc3c(c2c(Nc2ccc(Cl)cc2)[nH]1)CCCC3 | > 100 | > 100 | > 100 | 72.4 | > 100 | > 100 | > 100 |  | > 100 | > 100 | > 100 | > 100 | > 100
CN(CC(=O)N1CC(CCl)c2ccc([N+](=O)[O-])cc21)CC(=O)N1CC(CCl)c2ccc([N+](=O)[O-])cc21 (configuration not stated) | > 100 | > 100 | > 100 | > 100 | > 100 | > 100 | > 100 | > 100 | > 100 | > 100 | > 100 | > 100 | > 100

SMILES | TGI (UACC-257 melanoma) [µM] | TGI (MDA-N) [µM] | TGI (SN12C renal) [µM] | TGI (RPMI-8226 leukemia) [µM] | TGI (SW-620 colon) [µM] | TGI (LOX IMVI melanoma) [µM] | TGI (786-0 renal) [µM] | TGI (SF-539 CNS) [µM] | TGI (MALME-3M melanoma) [µM] | TGI (UACC-62 melanoma) [µM] | TGI (HOP-62 NSCLC) [µM] | TGI (SK-OV-3 ovarian) [µM] | TGI (OVCAR-3 ovarian) [µM]
Cc1c(-c2ccc(O)cc2)n(CCCCCCNCCOC(=O)NCCCc2ccc(N(CCCl)CCCl)cc2)c2ccc(O)cc12 | 3.57 | 3.47 | 6.22 | 2.98 | 5.37 | 2.97 | 2.97 | 3.11 | 3.12 | 3.26 | 8.57 | 22.4 | 6.41
O=C1NC(N/N=C/C(O)C(O)C(O)C(O)CO)=N/C1=C\c1ccco1 (configuration not stated) | > 100 | > 100 | > 100 | > 100 | > 100 | > 100 | > 100 | > 100 | > 100 | > 100 | > 100 | > 100 | > 100
C=CCC1(O)CC(n2cc(C)c(=O)[nH]c2=O)OC1CO[Si](C)(C)C(C)(C)C (configuration not stated) | > 100 | > 100 | > 100 | 97.7 | > 100 | 89.6 | > 100 | > 100 |  | > 100 | > 100 |  | > 100
CN(C)CCCN1c2ccc([N+](=O)[O-])cc2CCc2cccc([N+](=O)[O-])c21 | 27.6 | 29.2 | 28.6 | 98.7 | 39.5 | 31.8 | 26.5 | 31.5 | 28 | 10.4 | 27 | 30.8 | 28.8
Cc1ccc(-c2n[nH]c(Cc3nc(-c4ccc(C)cc4)n[nH]3)n2)cc1 | > 100 | > 100 | > 100 | > 100 | > 100 | > 100 | > 100 | > 100 |  | > 100 | > 100 | > 100 | > 100
Nc1ncc(Br)c(NCC2(CO)CCC2)n1 | > 100 | > 100 | > 100 | > 100 | > 100 | > 100 | > 100 | > 100 | > 100 | > 100 | > 100 |  | > 100
Cc1ccc(S(=O)(=O)NC(=O)NC(CC(N)=O)C(=O)O)cc1 (configuration not stated) | > 100 | > 100 | > 100 | > 100 | > 100 | > 100 | > 100 | > 100 | > 100 | > 100 | > 100 | > 100 | 
C[N+](C)(CCCn1ccnc1[N+](=O)[O-])CCCn1ccnc1[N+](=O)[O-] | > 100 | > 100 | > 100 | > 100 | > 100 | > 100 | > 100 | > 100 | > 100 | > 100 | > 100 | > 100 | > 100
CC(C)(C)c1cc(C(=O)/C=C/c2c(Cl)cccc2Cl)cc(C(C)(C)C)c1O | 17.6 | > 68.3 | > 75.2 | 21.3 | 36.2 | 28.3 | 29.7 | 31.6 | 37.6 | 30.3 | > 54.8 | > 100 | 25.3
CC1=CC(=O)[C@@H](O)[C@]2(C)[C@H]3[C@@]4(O)OC[C@]35[C@H]([C@@H](C)[C@H]4O)[C@@H](OC(=O)C(C)(C)CO)C(=O)O[C@@H]5C[C@@H]12 |  | 0.825 | 4.5 | 0.0968 | > 27.6 | 0.0741 | 4.83 | < 0.0261 |  | 0.86 | 1.63 | > 81.4 | 1.92
C1=CC2C=CC(C=C1)P2c1ccccc1 (configuration not stated) | > 100 | > 100 | > 100 | > 100 | > 100 | > 100 | > 100 | > 100 | > 100 | > 100 | > 100 | > 100 | > 100
NC1CC(=O)c2cscc21 (configuration not stated) | > 100 | > 100 | > 100 | > 100 | 37.4 | > 100 | 28.4 | > 100 |  |  | > 100 | > 100 | 34.8
COC(=O)NC(Nc1ccccn1)(C(F)(F)F)C(F)(F)F | > 100 | > 100 |  | > 100 | > 100 | > 100 | > 100 | > 100 | > 100 | > 100 | > 100 | > 100 | > 100
COc1cc(NC(C)c2ccc3c(c2)OCCO3)cc(OC)c1OC (configuration not stated) | > 100 | 30.2 | > 100 | 84.6 | > 100 | > 100 | > 100 | 60.4 | 67.8 | > 100 | > 100 |  | > 100
CCCCS(=O)(=O)CCC(N)P(=O)(O)O (configuration not stated) | > 100 | > 100 | > 100 | > 100 | > 100 | > 100 | > 100 |  | > 100 | > 100 | > 100 | > 100 | > 100
O=C1OCN(c2ccccc2)C12CCN(Cc1ccccc1)CC2 | 31 | 62.3 | > 100 | 89 | 49.8 | 30.4 | 79.2 | 39.7 | 43.8 | 37.2 | > 100 | > 100 | 
CN1Cc2ccccc2S(=O)(=O)n2cccc2C1=O | > 100 | > 100 | > 100 | > 100 | > 100 | > 100 | > 100 | > 100 |  | > 100 | > 100 | > 100 | > 100
